Source: patent publication US20060069132A1, “Azolecarboxamide herbicides” (priority 2004, published 2006)

Legend:
barnyardgrass [1] = assay: Test A pre-/postemergence herbicide test; format: in vivo, Echinochloa crus-galli
Summary of the method: (§1)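 Greenhouse injury scoring (0–100, complete control = 100) at approximately ten days follows simultaneous pre- and postemergence application. Soil received a directed spray after seeding; seedlings of 2–10 cm at the one- to two-leaf stage were sprayed to runoff.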

large crabgrass [2] = assay: Test A pre-/postemergence herbicide test; format: in vivo, Digitaria sanguinalis
Summary of the method: as §1

giant foxtail [3] = assay: Test A pre-/postemergence herbicide test; format: in vivo, Setaria faberi
Summary of the method: as §1

morningglory [4] = assay: Test A pre-/postemergence herbicide test; format: in vivo, Ipomoea spp.
Summary of the method: as §1

redroot pigweed = assay: Test A pre-/postemergence herbicide test; format: in vivo, Amaranthus retroflexus
Summary of the method: as §1

velvetleaf [5] = assay: Test A pre-/postemergence herbicide test; format: in vivo, Abutilon theophrasti
Summary of the method: as §1

barnyardgrass [6] = assay: Test B pre-/postemergence herbicide test; format: in vivo, Echinochloa crus-galli; details: for Plant response rating, Barnyardgrass: preemergence; for Barnyardgrass plant response rating: postemergence, visual rating, scale 0 (no effect) to 100 (complete control)
Summary of the method: (§2)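 Formulation: non-phytotoxic solvent mix with surfactant. Timing: preemergence on seed and postemergence on 2–18 cm plants, applied concurrently. Readout after 13–15 d greenhouse: visual 0–100 control rating against controls.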

Surinam grass = assay: Test B pre-/postemergence herbicide test; format: in vivo, Urochloa decumbens; details: for Plant response rating, Surinam Grass: preemergence; for Surinam Grass plant response rating: postemergence, visual rating, scale 0 (no effect) to 100 (complete control)
Summary of the method: (§3)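 Pre: seeds sown, then sprayed. Post: 1–4-leaf plants (2–18 cm) sprayed at the same time. Paddy: flooded, treated at 2-leaf stage. Formulation: non-phytotoxic solvent with surfactant. Greenhouse 13–15 days; visual 0–100 score relative to controls.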

cocklebur = assay: Test B pre-/postemergence herbicide test; format: in vivo, Xanthium strumarium; details: for Plant response rating, Cocklebur: preemergence; for Cocklebur plant response rating: postemergence, visual rating, scale 0 (no effect) to 100 (complete control)
Summary of the method: as §2

corn = assay: Test B pre-/postemergence herbicide test; format: in vivo, Zea mays; details: preemergence
Summary of the method: as §3

large crabgrass [7] = assay: Test B pre-/postemergence herbicide test; format: in vivo, Digitaria sanguinalis; details: for Plant response rating, Crabgrass, Large: preemergence; for Crabgrass, Large plant response rating: postemergence, visual rating, scale 0 (no effect) to 100 (complete control)
Summary of the method: as §3

giant foxtail [8] = assay: Test B pre-/postemergence herbicide test; format: in vivo, Setaria faberi; details: for Plant response rating, Foxtail, Giant: preemergence; for Foxtail, Giant plant response rating: postemergence, visual rating, scale 0 (no effect) to 100 (complete control)
Summary of the method: as §3

lambsquarters = assay: Test B pre-/postemergence herbicide test; format: in vivo, Chenopodium album; details: for Plant response rating, Lambsquarters: preemergence; for Lambsquarters plant response rating: postemergence, visual rating, scale 0 (no effect) to 100 (complete control)
Summary of the method: as §3

morningglory [9] = assay: Test B pre-/postemergence herbicide test; format: in vivo, Ipomoea coccinea; details: preemergence, 125 g ai/ha; 0 to 100 scale, 0 is no effect, 100 is complete control
Summary of the method: as §2

pigweed = assay: Test B pre-/postemergence herbicide test; format: in vivo, Amaranthus retroflexus; details: for Plant response rating, Pigweed: preemergence; for Pigweed plant response rating: postemergence, visual rating, scale 0 (no effect) to 100 (complete control)
Summary of the method: as §3

rice [10] = assay: Test B pre-/postemergence herbicide test; format: in vivo, Oryza sativa; details: preemergence, 125 g ai/ha; 0 to 100 scale, 0 is no effect, 100 is complete control
Summary of the method: as §3

velvetleaf [11] = assay: Test B pre-/postemergence herbicide test; format: in vivo, Abutilon theophrasti; details: for Plant response rating, Velvetleaf: preemergence; for Velvetleaf plant response rating: postemergence, visual rating, scale 0 (no effect) to 100 (complete control)
Summary of the method: as §3

blackgrass = assay: Test B postemergence herbicide test; format: in vivo, Alopecurus myosuroides; details: postemergence, visual rating, scale 0 (no effect) to 100 (complete control)
Summary of the method: (§4)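 Scale 0–100: zero equals no visible effect, 100 complete control, judged by eye relative to controls. Timing: 13 to 15 days in greenhouse post-treatment. Growth stage at spraying: two leaves (paddy) or one to four leaves, 2–18 cm (postemergence).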

wheat = assay: Test B postemergence herbicide test; format: in vivo, Triticum aestivum; design: key to Wheat plant response rating: 0 = no effect, 100 = complete control; details: postemergence, visual rating, scale 0 (no effect) to 100 (complete control)
Summary of the method: (§5)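 Read-out: visual comparison with controls, scored 0 to 100, where 100 means complete control and 0 no effect. Formulated chemicals were applied postemergence to plants 2–18 cm tall (1- to 4-leaf), or to flooded-paddy plants at the 2-leaf stage, then held 13 to 15 days under glass.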

wild oat = assay: Test B postemergence herbicide test; format: in vivo, Avena fatua; details: postemergence, visual rating, scale 0 (no effect) to 100 (complete control)
Summary of the method: as §5

rice [12] = assay: Test B flooded paddy test; format: in vivo, Oryza sativa; details: 1000 g ai/ha, visual rating, scale 0 to 100 (0 no effect, 100 complete control), 13 to 15 days
Summary of the method: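 Plants grow to 1- to 4-leaf stage (2–18 cm) for postemergence spraying, or to 2-leaf stage for the paddy test. Formulated compound is applied. Greenhouse holding lasts 13–15 days. Response is scored visually relative to controls, 0 no effect to 100 complete control; a dash means no result.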

[13] = tested on: small flower umbrella sedge; assay: Test B flooded paddy test; format: in vivo, Cyperus difformis; details: 1000 g ai/ha, visual rating, scale 0 to 100 (0 no effect, 100 complete control), 13 to 15 days
Summary of the method: as §4

ducksalad = assay: Test B flooded paddy test; format: in vivo, Heteranthera limosa; details: 1000 g ai/ha, visual rating, scale 0 to 100 (0 no effect, 100 complete control), 13 to 15 days
Summary of the method: as §4

barnyardgrass [14] = assay: Test B flooded paddy test; format: in vivo, Echinochloa crus-galli; details: 1000 g ai/ha, visual rating, scale 0 to 100 (0 no effect, 100 complete control), 13 to 15 days
Summary of the method: as §4

[15] = Postemergence, 500 g ai/ha, 0 to 100 scale, 0 no effect, 100 complete control
[16] = Postemergence, 2000 g ai/ha, 0 to 100 scale, 0 no effect, 100 complete control
[17] = Preemergence, 500 g ai/ha, visual rating, 0 to 100 scale (0 no effect, 100 complete control)
[18] = Preemergence, 2000 g ai/ha, visual rating, 0 to 100 scale (0 no effect, 100 complete control)
[19] = preemergence, 500 g ai/ha, visual injury, 0 to 100 scale (0 no effect, 100 complete control)
[20] = 500 g ai/ha, visual rating 0-100, 0 no effect, 100 complete control
[21] = 125 g ai/ha, 0 to 100 scale, 0 is no effect, 100 is complete control

For `CCC(C)c1cc(C(=O)Nc2cccc(C(C)=NO)c2)n(C)n1` (stereo not shown) [Compound 120], the “Barnyardgrass plant response rating” value (barnyardgrass [1]; [15]) was 45, the “Plant response rating, Barnyardgrass” value (barnyardgrass [1]; [16]) was 65 and the “Barnyardgrass plant response rating” value (barnyardgrass [1]; [17]) was 30. For the same compound, the “Barnyardgrass plant response rating” value (barnyardgrass [1]; [18]) was 85, the “Crabgrass, Large plant response rating” value (large crabgrass [2]; [15]) was 50 and the “Plant response rating, Crabgrass, Large” value (large crabgrass [2]; [16]) was 65. The “Crabgrass, Large plant response rating” value (large crabgrass [2]; [17]) was 45, the “Crabgrass, Large plant response rating” value (large crabgrass [2]; [18]) was 75 and the “Foxtail, Giant plant response rating” value (giant foxtail [3]; [15]) was 20. For the same compound, the “Plant response rating, Foxtail, Giant” value (giant foxtail [3]; [16]) was 20, the “Foxtail, Giant plant response rating” value (giant foxtail [3]; [17]) was 25 and the “Foxtail, Giant plant response rating” value (giant foxtail [3]; [18]) was 55. The “Morningglory plant response rating” value (morningglory [4]; [15]) was 20, the “Plant response rating, Morningglory” value (morningglory [4]; [16]) was 40 and the “Morningglory plant response rating” value (morningglory [4]; [17]) was 20. The “Morningglory plant response rating” value (morningglory [4]; [18]) was 55, the “Pigweed plant response rating” value (redroot pigweed; [15]) was 50 and the “Plant response rating, Pigweed” value (redroot pigweed; [16]) was 85. For the same compound, the “Pigweed plant response rating” value (redroot pigweed; [18]) was 50, the “Pigweed plant response rating” value (redroot pigweed; [19]) was 20 and the “Velvetleaf plant response rating” value (velvetleaf [5]; [15]) was 25. For the same compound, the “Plant response rating, Velvetleaf” value (velvetleaf [5]; [16]) was 30, the “Velvetleaf plant response rating” value (velvetleaf [5]; [18]) was 40 and the “Velvetleaf plant response rating” value (velvetleaf [5]; [19]) was 20. For the same compound, the “Plant response rating, Barnyardgrass” value (barnyardgrass [6]; [20]) was 90, the “Barnyardgrass plant response rating” value (barnyardgrass [6]; 125 g ai/ha) was 10 and the “Barnyardgrass plant response rating” value (barnyardgrass [6]; 500 g ai/ha) was 10. The “Plant response rating, Barnyardgrass” value (barnyardgrass [6]; [21]) was 0, the “Plant response rating, Surinam Grass” value (Surinam grass; [20]) was 0 and the “Surinam Grass plant response rating” value (Surinam grass; 125 g ai/ha) was 20. For the same compound, the “Surinam Grass plant response rating” value (Surinam grass; 500 g ai/ha) was 50, the “Plant response rating, Surinam Grass” value (Surinam grass; [21]) was 0 and the “Plant response rating, Cocklebur” value (cocklebur; [20]) was 0. For the same compound, the “Cocklebur plant response rating” value (cocklebur; 125 g ai/ha) was 30, the “Cocklebur plant response rating” value (cocklebur; 500 g ai/ha) was 60 and the “Plant response rating, Cocklebur” value (cocklebur; [21]) was 0. For the same compound, the “Plant response rating, Corn” value (corn; [20]) was 0, the “Plant response rating, Corn” value (corn; [21]) was 0 and the “Plant response rating, Crabgrass, Large” value (large crabgrass [7]; [20]) was 90. The “Crabgrass, Large plant response rating” value (large crabgrass [7]; 125 g ai/ha) was 10, the “Crabgrass, Large plant response rating” value (large crabgrass [7]; 500 g ai/ha) was 20 and the “Plant response rating, Crabgrass, Large” value (large crabgrass [7]; [21]) was 70. The “Plant response rating, Foxtail, Giant” value (giant foxtail [8]; [20]) was 70, the “Foxtail, Giant plant response rating” value (giant foxtail [8]; 125 g ai/ha) was 10 and the “Foxtail, Giant plant response rating” value (giant foxtail [8]; 500 g ai/ha) was 10. For the same compound, the “Plant response rating, Foxtail, Giant” value (giant foxtail [8]; [21]) was 0, the “Plant response rating, Lambsquarters” value (lambsquarters; [20]) was 20 and the “Lambsquarters plant response rating” value (lambsquarters; 125 g ai/ha) was 0. The “Lambsquarters plant response rating” value (lambsquarters; 500 g ai/ha) was 50, the “Plant response rating, Lambsquarters” value (lambsquarters; [21]) was 0 and the “Plant response rating, Morningglory” value (morningglory [9]) was 10. For the same compound, the “Plant response rating, Pigweed” value (pigweed; [20]) was 30, the “Pigweed plant response rating” value (pigweed; 125 g ai/ha) was 10 and the “Pigweed plant response rating” value (pigweed; 500 g ai/ha) was 70. The “Plant response rating, Pigweed” value (pigweed; [21]) was 0, the “Plant response rating, Rice” value (rice [10]) was 0 and the “Plant response rating, Velvetleaf” value (velvetleaf [11]; [20]) was 40. The “Velvetleaf plant response rating” value (velvetleaf [11]; 125 g ai/ha) was 10, the “Velvetleaf plant response rating” value (velvetleaf [11]; 500 g ai/ha) was 30 and the “Plant response rating, Velvetleaf” value (velvetleaf [11]; [21]) was 20. For the same compound, the “Blackgrass plant response rating” value (blackgrass; 125 g ai/ha) was 0, the “Blackgrass plant response rating” value (blackgrass; 500 g ai/ha) was 10 and the “Wheat plant response rating” value (wheat; 125 g ai/ha) was 10. The “Wheat plant response rating” value (wheat; 500 g ai/ha) was 10, the “Oat, Wild plant response rating” value (wild oat; 125 g ai/ha) was 10 and the “Oat, Wild plant response rating” value (wild oat; 500 g ai/ha) was 10. The “Rice plant response rating” value (rice [12]) was 0, the “Sedge, Umbrella plant response rating” value [13] was 10 and the “Ducksalad plant response rating” value (ducksalad) was 70. The “Barnyardgrass plant response rating” value (barnyardgrass [14]) was 30.
